These results are taken from ChEMBL document CHEMBL5465560, “Selectivity Literature for EUbOPEN Chemogenomic Library” (2024).

SMILES strings stand for the structures.

Assay [1] deals with T1, Myotonin-protein kinase (Homo sapiens) (UniProt Q09013).
T1 sequence (whole entry): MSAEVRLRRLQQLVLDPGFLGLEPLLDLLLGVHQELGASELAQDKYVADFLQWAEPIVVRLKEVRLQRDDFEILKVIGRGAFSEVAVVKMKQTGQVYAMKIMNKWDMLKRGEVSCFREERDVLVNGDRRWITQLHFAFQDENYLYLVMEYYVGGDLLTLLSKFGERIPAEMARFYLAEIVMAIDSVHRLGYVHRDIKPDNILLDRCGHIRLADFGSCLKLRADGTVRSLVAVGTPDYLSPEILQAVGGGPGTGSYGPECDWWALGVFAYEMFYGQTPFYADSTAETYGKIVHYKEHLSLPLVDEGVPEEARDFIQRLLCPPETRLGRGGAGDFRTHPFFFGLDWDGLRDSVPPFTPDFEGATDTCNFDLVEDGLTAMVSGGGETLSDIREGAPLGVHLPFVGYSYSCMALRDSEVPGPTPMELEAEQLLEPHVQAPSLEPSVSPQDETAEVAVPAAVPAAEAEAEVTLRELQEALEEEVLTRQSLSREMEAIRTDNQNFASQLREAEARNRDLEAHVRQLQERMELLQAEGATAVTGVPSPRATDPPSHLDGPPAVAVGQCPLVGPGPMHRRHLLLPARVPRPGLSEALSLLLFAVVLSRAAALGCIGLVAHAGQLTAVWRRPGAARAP
Kind of assay: Selectivity interaction (LanthaScreen Eu Kinase Binding Assay) EUB0001632a DMPK. To be noted: at 10 µM. (In TR-FRET formats the signal depends on donor and acceptor labels being close together.)

Assay [2] addresses Ribosomal protein S6 kinase alpha-5 (Homo sapiens) (UniProt O75582). Kind of assay: Selectivity interaction (Kinase panel (Z-LYTE Assay)) EUB0001632a RPS6KA5. The settings on record: at 10 µM.
In assay [3] the target is Interleukin-1 receptor-associated kinase 1 (Homo sapiens) (UniProt P51617). Put plainly: Selectivity interaction (KinomeScan (DiscoverX)) EUB0000595a IRAK1. To be noted: at 10 µM.
For assay [4], the target named is Mitogen-activated protein kinase 7 (Homo sapiens) (UniProt Q13164). Put plainly: Selectivity interaction (KinomeScan (DiscoverX)) EUB0000695a MAPK7. The settings on record: at 100 nM.
Assay [5] deals with Phosphatidylinositol 4-phosphate 3-kinase C2 domain-containing subunit beta (Homo sapiens) (UniProt O00750). Kind of assay: Selectivity interaction (KinomeScan (DiscoverX)) EUB0000607a PIK3C2B. To be noted: at 10 µM.
Assay [6] deals with Serine/threonine-protein kinase 26 (Homo sapiens, UniProt Q9P289). To be noted: at 10 µM.
For assay [7], the target named is Serine/threonine-protein kinase MRCK alpha (Homo sapiens) (UniProt Q5VT25). To be noted: at 10 µM.
Assay [8] has as its target Dual specificity tyrosine-phosphorylation-regulated kinase 1A (Homo sapiens, UniProt Q13627). Kind of assay: Selectivity interaction (Kinase screening (Nanosyn)) EUB0000604a DYRK1A.
Assay [9] concerns the target Myosin light chain kinase, smooth muscle (Homo sapiens, UniProt Q15746). Put plainly: Selectivity interaction (Kinase panel (Invitrogen)) EUB0000639a MYLK. To be noted: at 200 nM.
For assay [10], the target named is Mitogen-activated protein kinase 4 (Homo sapiens) (UniProt P31152). Put plainly: Selectivity interaction (KinomeScan (DiscoverX)) EUB0000045b MAPK4.
The target of assay [11] is Dual specificity mitogen-activated protein kinase kinase 1 (Homo sapiens, UniProt Q02750). Put plainly: Selectivity interaction (Enzymatic assay) EUB0001199aCl MAP2K1.
The target of assay [12] is RAC-alpha serine/threonine-protein kinase (Homo sapiens, UniProt P31749). Kind of assay: Selectivity interaction (Kinase panel (literature)) EUB0001199aCl AKT1. To be noted: at 1 µM.
The target of assay [13] is T2, Mitogen-activated protein kinase kinase kinase 7 (Homo sapiens) (UniProt O43318).
T2 sequence (whole entry): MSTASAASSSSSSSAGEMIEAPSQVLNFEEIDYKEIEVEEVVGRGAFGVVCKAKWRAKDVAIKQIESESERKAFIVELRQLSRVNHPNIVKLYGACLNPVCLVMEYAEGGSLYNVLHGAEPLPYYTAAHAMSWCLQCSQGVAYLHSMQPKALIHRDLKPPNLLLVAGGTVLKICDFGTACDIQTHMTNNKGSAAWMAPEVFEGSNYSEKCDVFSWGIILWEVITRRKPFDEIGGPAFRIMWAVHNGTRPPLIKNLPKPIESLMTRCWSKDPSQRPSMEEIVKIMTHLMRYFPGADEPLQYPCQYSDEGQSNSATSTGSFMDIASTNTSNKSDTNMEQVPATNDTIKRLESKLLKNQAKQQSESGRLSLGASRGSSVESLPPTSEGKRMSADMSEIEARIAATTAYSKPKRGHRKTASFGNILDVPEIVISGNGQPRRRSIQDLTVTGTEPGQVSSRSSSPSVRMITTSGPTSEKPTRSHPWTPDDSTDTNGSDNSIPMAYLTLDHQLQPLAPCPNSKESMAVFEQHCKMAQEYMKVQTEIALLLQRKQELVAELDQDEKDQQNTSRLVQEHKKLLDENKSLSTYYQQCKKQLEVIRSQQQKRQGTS
Put plainly: Selectivity interaction (ProQinase) EUB0000171b MAP3K7.

For assay [14], the target named is Receptor tyrosine-protein kinase erbB-3 (Homo sapiens) (UniProt P21860). Put plainly: Selectivity interaction (KinomeScan (DiscoverX)) EUB0001079a ERBB3. To be noted: at 1 µM.
The target of assay [15] is T3, Inhibitor of nuclear factor kappa-B kinase subunit alpha (Homo sapiens) (UniProt O15111).
T3 sequence (whole entry): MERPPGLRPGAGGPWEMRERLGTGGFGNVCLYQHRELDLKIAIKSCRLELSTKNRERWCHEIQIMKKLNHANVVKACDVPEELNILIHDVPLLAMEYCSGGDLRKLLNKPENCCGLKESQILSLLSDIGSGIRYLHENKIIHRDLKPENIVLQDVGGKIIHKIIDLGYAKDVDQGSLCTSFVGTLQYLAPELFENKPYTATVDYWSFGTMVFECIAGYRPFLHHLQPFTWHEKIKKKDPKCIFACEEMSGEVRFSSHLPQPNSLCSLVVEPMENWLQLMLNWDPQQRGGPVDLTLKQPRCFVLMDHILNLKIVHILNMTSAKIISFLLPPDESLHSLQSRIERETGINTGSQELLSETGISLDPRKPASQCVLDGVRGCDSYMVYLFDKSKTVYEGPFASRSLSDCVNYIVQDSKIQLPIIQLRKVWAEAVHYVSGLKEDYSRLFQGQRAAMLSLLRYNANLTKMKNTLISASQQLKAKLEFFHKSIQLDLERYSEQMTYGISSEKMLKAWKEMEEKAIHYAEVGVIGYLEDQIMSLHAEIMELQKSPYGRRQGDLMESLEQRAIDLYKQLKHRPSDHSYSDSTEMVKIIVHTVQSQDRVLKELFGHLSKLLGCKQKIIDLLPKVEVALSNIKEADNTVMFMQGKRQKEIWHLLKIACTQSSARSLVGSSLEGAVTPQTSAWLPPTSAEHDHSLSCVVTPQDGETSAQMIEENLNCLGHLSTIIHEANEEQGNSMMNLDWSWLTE
Put plainly: Selectivity interaction (KinomeScan (DiscoverX)) EUB0000229b CHUK. To be noted: at 10 µM.

Chain of Mitogen-activated protein kinase 4 (Homo sapiens) (P31152 whole entry): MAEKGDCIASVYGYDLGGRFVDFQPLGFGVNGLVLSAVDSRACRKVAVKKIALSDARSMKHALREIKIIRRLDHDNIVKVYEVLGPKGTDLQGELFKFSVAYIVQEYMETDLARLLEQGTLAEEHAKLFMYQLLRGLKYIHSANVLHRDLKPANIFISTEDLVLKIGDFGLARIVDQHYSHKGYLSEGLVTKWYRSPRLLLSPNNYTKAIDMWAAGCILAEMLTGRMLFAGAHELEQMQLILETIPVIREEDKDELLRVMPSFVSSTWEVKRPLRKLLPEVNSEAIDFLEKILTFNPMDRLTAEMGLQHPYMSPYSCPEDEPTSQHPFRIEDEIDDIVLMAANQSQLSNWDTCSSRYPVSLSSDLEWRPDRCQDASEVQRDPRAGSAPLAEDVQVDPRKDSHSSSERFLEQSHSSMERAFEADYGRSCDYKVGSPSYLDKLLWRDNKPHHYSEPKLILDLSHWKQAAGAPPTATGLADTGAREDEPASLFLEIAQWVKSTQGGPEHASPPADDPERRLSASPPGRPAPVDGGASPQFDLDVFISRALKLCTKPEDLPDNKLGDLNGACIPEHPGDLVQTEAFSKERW
Chain of Mitogen-activated protein kinase 7 (Homo sapiens) (Q13164 2-816 limits assumed): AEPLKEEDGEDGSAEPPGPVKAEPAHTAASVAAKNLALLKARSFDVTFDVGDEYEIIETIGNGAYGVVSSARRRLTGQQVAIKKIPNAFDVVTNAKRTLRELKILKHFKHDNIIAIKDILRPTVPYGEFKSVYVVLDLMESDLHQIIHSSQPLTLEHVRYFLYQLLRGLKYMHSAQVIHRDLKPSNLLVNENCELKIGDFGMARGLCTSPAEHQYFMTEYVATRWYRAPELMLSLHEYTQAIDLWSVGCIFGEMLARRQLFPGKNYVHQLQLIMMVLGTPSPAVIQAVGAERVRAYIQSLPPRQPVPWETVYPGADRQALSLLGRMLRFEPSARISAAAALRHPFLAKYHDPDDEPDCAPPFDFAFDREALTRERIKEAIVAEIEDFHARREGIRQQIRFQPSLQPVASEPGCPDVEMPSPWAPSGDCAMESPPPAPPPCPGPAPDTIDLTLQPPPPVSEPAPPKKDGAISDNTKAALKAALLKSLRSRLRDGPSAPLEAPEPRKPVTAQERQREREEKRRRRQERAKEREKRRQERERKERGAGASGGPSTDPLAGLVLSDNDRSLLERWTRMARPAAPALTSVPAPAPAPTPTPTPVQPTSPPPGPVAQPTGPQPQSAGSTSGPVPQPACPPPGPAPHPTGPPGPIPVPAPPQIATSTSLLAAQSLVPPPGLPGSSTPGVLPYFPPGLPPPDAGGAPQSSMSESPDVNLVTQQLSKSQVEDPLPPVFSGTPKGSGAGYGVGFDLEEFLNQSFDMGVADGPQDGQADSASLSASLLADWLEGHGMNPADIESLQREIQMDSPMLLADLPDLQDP
Chain of Serine/threonine-protein kinase MRCK alpha (Homo sapiens) (Q5VT25 whole entry): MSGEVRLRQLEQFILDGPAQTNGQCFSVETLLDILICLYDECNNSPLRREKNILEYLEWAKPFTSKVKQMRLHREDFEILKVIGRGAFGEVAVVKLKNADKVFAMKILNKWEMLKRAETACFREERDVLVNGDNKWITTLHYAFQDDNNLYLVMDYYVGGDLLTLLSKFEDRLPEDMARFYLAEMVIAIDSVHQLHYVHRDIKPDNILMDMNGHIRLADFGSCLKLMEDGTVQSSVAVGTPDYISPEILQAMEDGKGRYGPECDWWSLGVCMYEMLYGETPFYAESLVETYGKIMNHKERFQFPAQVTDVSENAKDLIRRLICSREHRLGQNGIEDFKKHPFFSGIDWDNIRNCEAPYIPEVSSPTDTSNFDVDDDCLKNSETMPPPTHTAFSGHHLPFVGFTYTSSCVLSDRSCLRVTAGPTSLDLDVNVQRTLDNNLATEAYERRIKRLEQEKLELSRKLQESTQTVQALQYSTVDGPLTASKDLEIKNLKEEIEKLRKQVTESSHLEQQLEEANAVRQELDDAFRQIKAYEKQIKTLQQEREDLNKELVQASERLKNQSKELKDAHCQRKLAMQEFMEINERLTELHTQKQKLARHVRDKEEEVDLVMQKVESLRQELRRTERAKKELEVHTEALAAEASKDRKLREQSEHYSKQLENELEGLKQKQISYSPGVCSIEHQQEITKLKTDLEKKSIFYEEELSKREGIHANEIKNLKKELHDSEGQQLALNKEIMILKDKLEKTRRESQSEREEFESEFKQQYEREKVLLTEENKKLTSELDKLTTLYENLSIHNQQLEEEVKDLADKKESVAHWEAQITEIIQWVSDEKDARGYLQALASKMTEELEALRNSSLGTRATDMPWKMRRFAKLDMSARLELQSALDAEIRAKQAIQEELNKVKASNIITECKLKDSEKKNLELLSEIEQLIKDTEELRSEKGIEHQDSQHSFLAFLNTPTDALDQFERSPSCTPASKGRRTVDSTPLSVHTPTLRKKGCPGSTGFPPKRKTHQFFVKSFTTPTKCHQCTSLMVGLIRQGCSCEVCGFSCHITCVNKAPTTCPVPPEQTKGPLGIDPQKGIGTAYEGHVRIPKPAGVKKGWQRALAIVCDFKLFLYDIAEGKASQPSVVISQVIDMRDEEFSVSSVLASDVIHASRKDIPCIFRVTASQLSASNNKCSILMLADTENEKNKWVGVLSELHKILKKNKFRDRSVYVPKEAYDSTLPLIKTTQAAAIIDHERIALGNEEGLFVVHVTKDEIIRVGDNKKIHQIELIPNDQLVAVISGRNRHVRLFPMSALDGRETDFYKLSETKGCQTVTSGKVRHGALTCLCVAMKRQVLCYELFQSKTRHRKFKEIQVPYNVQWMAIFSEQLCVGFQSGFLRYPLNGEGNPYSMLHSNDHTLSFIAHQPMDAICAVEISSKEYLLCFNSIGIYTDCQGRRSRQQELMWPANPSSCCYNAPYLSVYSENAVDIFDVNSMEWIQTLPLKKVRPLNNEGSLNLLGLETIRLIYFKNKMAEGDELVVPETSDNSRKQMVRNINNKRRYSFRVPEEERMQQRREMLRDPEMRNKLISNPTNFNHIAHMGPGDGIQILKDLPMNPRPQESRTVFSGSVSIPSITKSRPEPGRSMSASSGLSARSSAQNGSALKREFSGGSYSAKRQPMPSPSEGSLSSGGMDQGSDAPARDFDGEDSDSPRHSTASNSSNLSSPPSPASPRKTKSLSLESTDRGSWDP
Chain of RAC-alpha serine/threonine-protein kinase (P31749 whole entry): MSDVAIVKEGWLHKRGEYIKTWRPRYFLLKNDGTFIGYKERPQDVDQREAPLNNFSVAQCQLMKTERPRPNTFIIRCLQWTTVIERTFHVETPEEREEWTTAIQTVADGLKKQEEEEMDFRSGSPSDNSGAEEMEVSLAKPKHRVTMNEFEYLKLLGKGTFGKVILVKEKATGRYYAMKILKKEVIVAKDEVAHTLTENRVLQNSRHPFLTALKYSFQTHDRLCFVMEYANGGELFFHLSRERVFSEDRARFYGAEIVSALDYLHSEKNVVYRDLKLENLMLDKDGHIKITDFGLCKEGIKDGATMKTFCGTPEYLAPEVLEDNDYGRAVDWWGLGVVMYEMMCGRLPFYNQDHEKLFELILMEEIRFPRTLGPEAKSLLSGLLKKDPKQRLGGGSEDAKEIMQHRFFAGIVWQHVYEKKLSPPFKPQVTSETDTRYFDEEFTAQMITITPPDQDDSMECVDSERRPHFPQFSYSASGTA
Chain of Receptor tyrosine-protein kinase erbB-3 (Homo sapiens) (P21860 whole entry): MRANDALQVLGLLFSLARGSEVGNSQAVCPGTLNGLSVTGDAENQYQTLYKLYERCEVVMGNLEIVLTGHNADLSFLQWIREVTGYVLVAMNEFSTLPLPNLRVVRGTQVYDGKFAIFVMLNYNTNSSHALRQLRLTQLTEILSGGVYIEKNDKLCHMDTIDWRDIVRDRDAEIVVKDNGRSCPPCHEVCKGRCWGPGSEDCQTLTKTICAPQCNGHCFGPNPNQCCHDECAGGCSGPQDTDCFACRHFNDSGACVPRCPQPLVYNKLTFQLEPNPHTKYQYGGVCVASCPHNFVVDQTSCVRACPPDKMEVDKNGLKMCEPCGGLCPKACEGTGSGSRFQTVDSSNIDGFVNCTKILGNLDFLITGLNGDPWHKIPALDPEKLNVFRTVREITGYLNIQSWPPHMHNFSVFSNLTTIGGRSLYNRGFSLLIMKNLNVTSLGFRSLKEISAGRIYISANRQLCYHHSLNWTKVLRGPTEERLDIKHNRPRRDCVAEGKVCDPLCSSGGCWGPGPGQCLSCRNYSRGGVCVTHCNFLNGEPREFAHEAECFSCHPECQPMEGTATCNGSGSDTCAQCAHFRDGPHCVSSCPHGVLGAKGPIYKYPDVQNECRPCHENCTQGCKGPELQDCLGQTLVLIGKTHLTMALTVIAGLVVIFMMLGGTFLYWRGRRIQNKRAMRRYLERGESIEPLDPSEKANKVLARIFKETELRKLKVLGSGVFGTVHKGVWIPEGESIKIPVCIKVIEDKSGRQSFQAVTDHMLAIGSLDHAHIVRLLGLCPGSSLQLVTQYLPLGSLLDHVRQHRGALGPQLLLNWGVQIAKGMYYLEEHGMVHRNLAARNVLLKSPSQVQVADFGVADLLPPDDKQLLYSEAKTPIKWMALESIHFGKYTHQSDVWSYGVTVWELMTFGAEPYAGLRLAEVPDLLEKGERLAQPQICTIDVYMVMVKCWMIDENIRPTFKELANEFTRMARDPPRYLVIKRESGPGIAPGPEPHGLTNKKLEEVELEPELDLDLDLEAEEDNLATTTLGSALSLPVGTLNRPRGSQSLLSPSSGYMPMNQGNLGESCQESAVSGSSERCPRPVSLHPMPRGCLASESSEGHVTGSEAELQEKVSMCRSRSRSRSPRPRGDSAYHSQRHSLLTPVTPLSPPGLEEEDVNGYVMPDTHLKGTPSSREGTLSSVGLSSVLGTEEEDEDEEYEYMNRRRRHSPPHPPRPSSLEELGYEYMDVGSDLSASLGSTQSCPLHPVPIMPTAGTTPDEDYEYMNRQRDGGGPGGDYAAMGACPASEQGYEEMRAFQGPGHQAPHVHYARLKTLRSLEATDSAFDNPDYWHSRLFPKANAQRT

On to `Cn1cc(-n2cnc3c(NCc4nc5cc(Cl)c(Cl)cc5[nH]4)nc(N4CCOCC4)nc32)cn1`, for which the % of inhibition in assay [1] is -4.81%. The % of control in [2] was determined as 0.545%.

Take `COCC(=O)NC/C=C/c1ccc2ncnc(Nc3ccc(Oc4ccc(C)nc4)c(C)c3)c2c1` [CP-724714]: the % of control in assay [3] was 100%.

The compound `Cc1cc(F)c(C(=O)Nc2cccc(-c3nncn3C(C)C)n2)cc1-n1cnc(C2CC2)c1` gave a % of control in assay [4] of 100%.

Turning to `CNC(=O)Nc1ccc(-c2nc(N3CC4CCC(C3)O4)c3cnn(C4CCC5(CC4)OCCO5)c3n2)cc1`, in assay [5], the % of control worked out at 25%.

On to `Cc1cc([C@@H](C)Nc2ccccc2C(=O)O)c2nc(N3CCOCC3)cc(=O)n2c1` [AZD-6482], for which the results for the % of control in assay [6] and in assay [7] were 100% and 96%, respectively.

With `Cc1cnc(Nc2ccc(F)cc2Cl)nc1-c1c[nH]c(C(=O)N[C@H](CO)c2cccc(Cl)c2)c1`, the % of inhibition in assay [8] was determined as 3%.

As to `CC[C@@H]1[C@H](F)C(=O)N[C@@H]1COc1nccc2cc(C(N)=O)c(OC)cc12` [ZIMLOVISERTIB], in assay [9], the % of inhibition was determined as 1%.

Take `C=CC(=O)Nc1cc(-n2c(=O)ccc3cnc4ccc(-c5ccc(NS(C)(=O)=O)cc5)cc4c32)ccc1C`: the % of control was determined as 91% in [10] (at 1 µM) and 100% in assay [10] (at 10 µM).

A word on the IC50: it is the concentration at which inhibition is half-maximal. A low value points to higher potency. Take `CN1Cc2nccc(-c3cn(C)nc3-c3ccc(F)cc3)c2C1=O`: the half-maximal inhibitory concentration (IC50) in assay [11] turned out to be 10.2 µM. For the same compound, the % of inhibition in assay [12] was found to be 1%.

With `C=CC(=O)Nc1cccc(C(=O)Nc2ccc(Nc3cc(-c4[nH]c(SC)nc4C)ccn3)cc2)c1`, the % of control is 101% in [13] (at 1 µM) and 77% in assay [13] (at 5 µM).

In turn, `Nc1cnc(N2CCc3cc(S(=O)(=O)Nc4c(F)cc(Cl)cc4F)cc(N4CCCC4=O)c32)nc1` [TP-020n] showed a % of control in [14] of 100%.

`COc1cc(N(C)c2ccnc3ccc(C(F)(F)F)cc23)cc(OC)c1OC` yielded a % binding in [15] of 92%.
